Some test systems named below: SNB-75 CNS; M14 melanoma; TK-10 renal; SK-MEL-28 melanoma; CCRF-CEM leukemia; SK-MEL-2 melanoma; A549 NSCLC; MDA-MB-231 breast; NCI-H23 lung; SK-MEL-5 melanoma.
Holding throughout (assay): NCI anticancer screen, dose series, 48 h

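Compound exposure: 48 hours, 5 concentrations, 96-well plates. Here, GI50 denotes the concentration required for 50% inhibition of growth. TGI is the concentration that stops growth completely.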

Take `Cc1[nH]nc(C(=O)n2nc(N)c3ccccc32)c1[N+](=O)[O-]`: the GI50 was 26.9 µM with SNB-75 CNS; above 100 µM in the assay on M14 melanoma; above 100 µM with TK-10 renal; above 100 µM in the assay on SK-MEL-28 melanoma; 32.2 µM with CCRF-CEM leukemia; above 100 µM with SK-MEL-2 melanoma. Further, the GI50 in the assay with A549 NSCLC, in the assay with MDA-MB-231 breast, with NCI-H23 lung and in the assay on SK-MEL-5 melanoma was above 100 µM throughout. Besides, the TGI in the assay with SNB-75 CNS is above 88.9 µM; with M14 melanoma, above 100 µM; with TK-10 renal, above 100 µM; in the assay on SK-MEL-28 melanoma, above 100 µM; with CCRF-CEM leukemia, above 100 µM; in the assay on SK-MEL-2 melanoma, above 100 µM. Moreover, the TGI in the assay with A549 NSCLC, with MDA-MB-231 breast, with NCI-H23 lung and with SK-MEL-5 melanoma was above 100 µM each time.
Take `CCN(CC)C(=S)SC`: the TGI in the assay on SNB-75 CNS, in the assay on M14 melanoma, in the assay on TK-10 renal, in the assay on SK-MEL-28 melanoma, in the assay with CCRF-CEM leukemia and in the assay on SK-MEL-2 melanoma was above 100 µM throughout. In addition, the TGI in the assay on A549 NSCLC, in the assay on MDA-MB-231 breast, with NCI-H23 lung and with SK-MEL-5 melanoma was above 100 µM in each case.
Take `COc1ccc2cc(-c3c(-c4ccncc4)nc(-c4ccc(S(C)(=O)=O)cc4C)n3C)ccc2c1`: the GI50 in the assay on SNB-75 CNS is 6.67 µM; in the assay on M14 melanoma it was 10.1 µM; with TK-10 renal, 5.82 µM; in the assay on SK-MEL-28 melanoma, 9.28 µM; with CCRF-CEM leukemia it was 8.46 µM; in the assay on SK-MEL-2 melanoma it was 6.78 µM. For the same compound, the GI50 was 9.04 µM with A549 NSCLC, 9.75 µM with MDA-MB-231 breast, 7.99 µM in the assay with NCI-H23 lung and 4.54 µM in the assay with SK-MEL-5 melanoma. Also, the TGI with SNB-75 CNS is above 25 µM; in the assay on M14 melanoma, above 25 µM; with TK-10 renal, 23.2 µM; in the assay on SK-MEL-28 melanoma, 24.9 µM; in the assay on CCRF-CEM leukemia it was above 25 µM; in the assay with SK-MEL-2 melanoma, above 25 µM. In addition, the TGI in the assay on A549 NSCLC is above 25 µM; in the assay on MDA-MB-231 breast, above 25 µM; in the assay with NCI-H23 lung it was above 25 µM; in the assay on SK-MEL-5 melanoma, above 15.4 µM.
On to `Cc1cc2c(cc1Cl)SC1=NN(C)C(N(C)C)N1S2(=O)=O` (stereo not given), for which the GI50 in the assay with SNB-75 CNS is 86.4 µM; with M14 melanoma, above 100 µM; in the assay with TK-10 renal it was above 100 µM; in the assay on SK-MEL-28 melanoma it was above 100 µM; with CCRF-CEM leukemia it was above 100 µM; in the assay with SK-MEL-2 melanoma it was above 100 µM. In addition, the GI50 with A549 NSCLC, in the assay on MDA-MB-231 breast, in the assay with NCI-H23 lung and in the assay on SK-MEL-5 melanoma was above 100 µM in each case. In addition, the TGI in the assay on SNB-75 CNS, in the assay with M14 melanoma, with TK-10 renal, in the assay with SK-MEL-28 melanoma, in the assay on CCRF-CEM leukemia and in the assay on SK-MEL-2 melanoma was above 100 µM throughout. The TGI in the assay on A549 NSCLC, with MDA-MB-231 breast, with NCI-H23 lung and in the assay on SK-MEL-5 melanoma was above 100 µM throughout.
In the case of `CCOc1cccc(/C=N/NC(=O)C(=O)Nc2cccc(C(F)(F)F)c2)c1O`, the GI50 in the assay on SNB-75 CNS is 5.38 µM; with M14 melanoma it was 1.52 µM; with TK-10 renal, 4.3 µM; in the assay on SK-MEL-28 melanoma, 5.51 µM; in the assay on CCRF-CEM leukemia it was 0.322 µM; in the assay on SK-MEL-2 melanoma, 5.3 µM. Also, the GI50 with A549 NSCLC is 2.04 µM; with MDA-MB-231 breast, 1.43 µM; with NCI-H23 lung, 4.57 µM; in the assay with SK-MEL-5 melanoma it was 1.87 µM. The TGI in the assay with SNB-75 CNS was 57.8 µM; in the assay on M14 melanoma, 12.6 µM; with TK-10 renal, above 100 µM; with SK-MEL-28 melanoma, above 100 µM; with CCRF-CEM leukemia, 7.41 µM; in the assay on SK-MEL-2 melanoma it was above 100 µM. In addition, the TGI with A549 NSCLC is above 100 µM; with MDA-MB-231 breast, above 100 µM; in the assay on NCI-H23 lung it was above 100 µM; with SK-MEL-5 melanoma it was 19 µM.
For `Fc1cc2[nH]ncc2c2c3c(c(-c4cn[nH]c4C(F)(F)F)nc12)C1CCC3C1` (stereo not given), the GI50 in the assay with SNB-75 CNS is 0.945 µM; with M14 melanoma, 0.791 µM; with TK-10 renal, 0.744 µM; in the assay on SK-MEL-28 melanoma it was 0.889 µM; with CCRF-CEM leukemia it was 1.23 µM; in the assay on SK-MEL-2 melanoma, 1.57 µM. The GI50 is 1.07 µM in the assay on A549 NSCLC, 0.724 µM in the assay on MDA-MB-231 breast, 1.27 µM in the assay on NCI-H23 lung and 0.74 µM in the assay on SK-MEL-5 melanoma. Moreover, the TGI in the assay on SNB-75 CNS is 2.93 µM; with M14 melanoma, 3.53 µM; in the assay on TK-10 renal, 4.08 µM; in the assay on SK-MEL-28 melanoma, 2.84 µM; in the assay on CCRF-CEM leukemia it was above 50 µM; with SK-MEL-2 melanoma, 4.2 µM. Also, the TGI in the assay on A549 NSCLC came out at 4.41 µM; with MDA-MB-231 breast, 3.45 µM; in the assay with NCI-H23 lung, 6 µM; in the assay on SK-MEL-5 melanoma, 1.52 µM.
On to `Nc1ccc(C(=O)CC(N)C(=O)O)cc1O` (stereo not given), for which the TGI in the assay with SNB-75 CNS, in the assay with M14 melanoma, in the assay on TK-10 renal, in the assay on SK-MEL-28 melanoma, in the assay with CCRF-CEM leukemia and in the assay on SK-MEL-2 melanoma was above 100 µM in each case. For the same compound, the TGI with A549 NSCLC, in the assay on MDA-MB-231 breast, in the assay with NCI-H23 lung and with SK-MEL-5 melanoma was above 100 µM each time.
`COc1ccc(N2C(=O)[C@H]3CC(C)c4c([nH]c5ccccc45)[C@H]3C2=O)cc1` (stereo not given in full): the TGI in the assay on SNB-75 CNS is 12.5 µM; with M14 melanoma, 39.9 µM; in the assay with TK-10 renal, 52.7 µM; in the assay with SK-MEL-28 melanoma, 57.8 µM; in the assay on CCRF-CEM leukemia, 46.9 µM; in the assay with SK-MEL-2 melanoma it was 16.5 µM. The TGI is above 90.7 µM with A549 NSCLC, above 54.8 µM in the assay with MDA-MB-231 breast, 29.4 µM in the assay with NCI-H23 lung and 36.6 µM in the assay with SK-MEL-5 melanoma.
Regarding `COc1ccc(-c2ccc(-c3ccc(C(=N)N)cn3)o2)cc1`, the GI50 was 10.5 µM in the assay with SNB-75 CNS; 2.12 µM in the assay with M14 melanoma; 10.7 µM in the assay with TK-10 renal; 8.23 µM in the assay with SK-MEL-28 melanoma; 3.2 µM in the assay on CCRF-CEM leukemia; 4.91 µM in the assay on SK-MEL-2 melanoma. The GI50 was 5.1 µM in the assay with A549 NSCLC, 3.34 µM with MDA-MB-231 breast, 11.6 µM in the assay with NCI-H23 lung and 3.43 µM in the assay on SK-MEL-5 melanoma. Moreover, the TGI amounted to 22.5 µM in the assay on SNB-75 CNS; 4.68 µM in the assay with M14 melanoma; 22.7 µM in the assay on TK-10 renal; 20.9 µM in the assay with SK-MEL-28 melanoma; 13.7 µM in the assay with CCRF-CEM leukemia; 15.9 µM in the assay on SK-MEL-2 melanoma. Also, the TGI came to 18.7 µM in the assay on A549 NSCLC, 15.3 µM in the assay on MDA-MB-231 breast, 25.5 µM in the assay on NCI-H23 lung and 14.1 µM in the assay with SK-MEL-5 melanoma.
